3 compounds from article PMC4569848 (Nature Communications, 2015) can be followed below.

Assay type in all cases: cell-based
Experiment [1] concerns SSTR2. In words: Co-IP β-arrestin-1/clathrin downstream of SSTR2. Conditions: HEK293, 1 μM somatostatin. As for the experimental part:
(§1) Figure 8 Phospho-pattern-selective mechanisms of specific arrestin functions are common for at least a subset of GPCRs. (a) The phospho-binding pattern of β-arrestin-1 determines selective arrestin functions downstream of β2AR in cells. HEK293 cells were co-transfected with Flag-β2AR and wild-type HA-β-arrestin-1 or specific phosphate-binding site mutants (R25A for site 4 and R7A for site 5), then stimulated with 10 μM isoproterenol (ISO) for 15 min. The β-arrestin-1 was immunoprecipitated by HA-antibody-conjugated agarose and the formation of the β-arrestin-1/clathrin or β-arrestin-1/SRC was detected by specific clathrin or SRC antibodies. […] (b,c) The phospho-binding pattern of β-arrestin-1 determines selective arrestin interaction with clathrin or SRC downstream of somatostatin receptor 2 (SSTR2, Fig. 4c) and cholecystokinin A receptor (CCKAR, Fig. 4d). […]
(§2) To examine the effects of β-arrestin-1 mutants on ISO, CCK-8s or somatostatin induced clathrin/β-arrestin-1 or SRC/β-arrestin-1 complex formation downstream of β2AR, CCKAR and SSTR2; HEK293 cells were co-transfected with Flag-β2AR/HA-β-arrestin-1, Flag-CCKAR/HA-β-arrestin-1 or Flag-SSTR2/HA-β-arrestin-1, respectively. […] Immune complexes were analysed by western blotting with specific antibody towards clathrin or pSRC416, respectively.Representative western blots from at least three experiments are shown in Fig. 8.

In experiment [2] the test system is SSTR2. Nature of the experiment: Co-IP β-arrestin-1/SRC downstream of SSTR2. The note with it: HEK293, 1 μM somatostatin. As to the method:
as §1, §2

The subject of experiment [3] is β2AR. Nature of the experiment: Intramolecular BRET of Luc-β-arrestin-1-YFP (arrestin conformational change). The note with it: HEK293 cells, 10 μM ISO, 10 min. For orientation: BRET reads energy transfer from a luciferase to a nearby fluorophore.
Method: (a) Activation of β2-AR-induced conformational changes in β-arrestin-1 as measured using intramolecular BRET. Plasmids encoding a β-arrestin-1 BRET biosensor (Luc-β-arrestin-1-YFP) and Flag-β2-AR were transiently co-transfected in HEK293 cells. After starvation, the cells were stimulated with ISO (10 μM) for 10 min. The effects of GRK phosphorylation of β2-AR on ISO-induced β-arrestin-1 conformational change were probed using siRNA-mediated GRK knockdown.
The pcDNA3.0-Flag-β2AR (Flag-β2AR), β-arrestin-1-YFP, pcDNA3.1-Luc-β-arrestin-2-YFP and pCDNA3.1-Clathrin constructs were generous gifts from Dr Lefkowitz at Duke University[21][32]. […] To monitor the β-arrestin-1 conformational change, the BRET sensor for β-arrestin-1 (pcDNA3.1-Luc-β-arrestin-1-YFP) was created by in-Fusion of the β-arrestin-1-YFP plasmid with the pcDNA3.1-Luc-β-arrestin-2-YFP construct[57][58]. […] All of the constructs and mutations were verified by DNA sequencing.
HEK 293 cells were attained from ATCC and cultured at 37 °C and 5% CO2 in DMEM containing 10% (v/v) fetal bovine serum and penicillin–streptomycin (5,000 IU l^−1). GRK2 or GRK6 expression was silenced in HEK 293 cells using a specific small interfering RNA (siRNA) duplex.
Experiment [4] has as its system β2AR. In words: Western blot of SRC activation (phospho-SRC 416). Conditions: HEK293 cells, ISO 1, 5 and 15 min. (A western blot detects proteins with antibodies after separation by electrophoresis.)
Method: (b) A representative western blotting is shown for the effects of knockdown of specific GRKs in β2-AR-mediated proto-oncogene tyrosine-protein kinase (SRC) activation. Left panel: HEK293 cells that were transiently transfected with Flag-β2-AR were stimulated with ISO for 1, 5 and 15 min. To examine the roles of GRK2 and GRK6 in β2-AR-mediated SRC activation, siRNAs that were selective for specific GRKs were transfected into the cells. A western blot representative of at least three independent experiments is shown on the left. Right panel: western blot signals of phospho-SRC 416 (a) were quantified using densitometry and are expressed as fold change versus basal level. […] (a,b) At least three independent experiments were performed. #P<0.05, ISO-stimulated cells are compared with unstimulated cells. *P<0.05; **P<0.01; ***P<0.005; GRK siRNA-treated cells are compared with control siRNA-treated cells.
GRK2 or GRK6 expression was silenced in HEK 293 cells using a specific small interfering RNA (siRNA) duplex. […]
To examine the roles of GRK2 and GRK6 in β2-AR-mediated SRC activation, selective siRNA towards specific GRK and Flag-β2AR plasmids were co-transfected into HEK-293 cells. […] Lysate protein concentrations were determined using the Bradford protein assay. […] SRC-416 phosphorylation was detected using a specific antibody.
Experiment [5] has as its system β2AR. In words: Co-IP β-arrestin-1/clathrin downstream of β2AR. The note with it: HEK293, 10 μM ISO, 15 min, β-arrestin-1 R25A (site 4) vs wild type.
From the text: (§3) (a) The phospho-binding pattern of β-arrestin-1 determines selective arrestin functions downstream of β2AR in cells. […] The β-arrestin-1 was immunoprecipitated by HA-antibody-conjugated agarose and the formation of the β-arrestin-1/clathrin or β-arrestin-1/SRC was detected by specific clathrin or SRC antibodies. […] (a–c) Representative western blottings from at least three experiments are shown on the left and the statistics from at least three independent experiments are shown on the right. *P<0.05, **P<0.01; the effects of mutants were compared with the wild type.
(§4) To examine the effects of β-arrestin-1 mutants on ISO, CCK-8s or somatostatin induced clathrin/β-arrestin-1 or SRC/β-arrestin-1 complex formation downstream of β2AR, CCKAR and SSTR2; HEK293 cells were co-transfected with Flag-β2AR/HA-β-arrestin-1, Flag-CCKAR/HA-β-arrestin-1 or Flag-SSTR2/HA-β-arrestin-1, respectively. Different HA-β-arrestin-1 mutations were used to detect the contribution of the phosphate-binding sites of β-arrestin-1 during the arrestin/clathrin or arrestin/SRC complex formatin. […] Immune complexes were analysed by western blotting with specific antibody towards clathrin or pSRC416, respectively.Representative western blots from at least three experiments are shown in Fig. 8.
Experiment [6] relates to β2AR. In words: Co-IP β-arrestin-1/SRC downstream of β2AR. The note with it: HEK293, 10 μM ISO, 15 min, β-arrestin-1 R7A (site 5) vs wild type.
From the text: as §3, §4
The test system of experiment [7] is β2AR.
Method: To examine the effects of β-arrestin-1 mutants on ISO-induced β2AR/β-arrestin-1 complex formation, the co-immunoprecipitation experiment was performed[61][62]. In detail, HEK293 cells were co-transfected with Flag-β2AR and β-arrestin-1-YFP mutants. Twenty-four hours after transfection, the cells were starved for 4 h and then stimulated with ISO (10 μM) for 10 min. The cell lysates were subjected to immunoprecipitation using anti-FLAG beads incubated overnight at 4 °C. Immune complexes were analysed by western blotting with specific antibodies. The associated β-arrestin 1-YFP was detected using an anti-YFP antibody.
Experiment [8] deals with CCKAR. In words: Co-IP β-arrestin-1/clathrin downstream of CCKAR. The note with it: HEK293, 2 μM CCK-8s. As for the experimental part: as §1, §2
The test system of experiment [9] is CCKAR. Nature of the experiment: Co-IP β-arrestin-1/SRC downstream of CCKAR. The note with it: HEK293, 2 μM CCK-8s, 15 min. As for the experimental part:
as §1, §2

“Also recorded” adds a separate entry of the source. No end group written: not given here. *: point of attachment. sulfate = O=S(=O)(O)*

As for somatostatin, the β-arrestin-1/clathrin recruitment result in [1] (15 min) is “promoted both clathrin and SRC recruitment for β-arrestin-1”. Also, in experiment [1] (β-arrestin-1 R25A vs wild type), the “β-arrestin-1/clathrin interaction, R25A” value is reported as “selectively disrupted β-arrestin-1/clathrin interaction”. Besides, the β-arrestin-1/SRC recruitment entry in [2] (15 min) is “promoted both clathrin and SRC recruitment for β-arrestin-1”. Besides, the “β-arrestin-1/SRC complex formation, R7A” value in experiment [2] (β-arrestin-1 R7A vs wild type) is “impaired the β-arrestin-1/SRC complex formation”.

Regarding `CC(C)NCC(O)c1ccc(O)c(O)c1` (stereo not drawn) [ISO, isoproterenol], the “BRET signal of Rluc-β-arrestin-1-YFP” value in experiment [3] (Flag-β2AR) is listed as “significantly increased the BRET signal”. In addition, the “BRET signal of Rluc-β-arrestin-1-YFP, GRK2 knockdown” value in experiment [3] (GRK2 siRNA) is on record as “significantly reduced by the knockdown of either GRK2 or GRK6”. Further, the “BRET signal of Rluc-β-arrestin-1-YFP, GRK6 knockdown” value in experiment [3] (GRK6 siRNA) is recorded as “significantly reduced by the knockdown of either GRK2 or GRK6”. In [4] (GRK2 siRNA), the “SRC activation, role of GRK2 (knockdown)” value is given as “GRK2 is a negative regulator of β2-AR-induced SRC activation”. In addition, the “SRC activation, role of GRK6 (knockdown)” value in experiment [4] (GRK6 siRNA) is “GRK6 is required for SRC activation downstream of β2-AR activation”. Also, in [5], the “β-arrestin-1/clathrin complex formation, R25A” value is listed as “selectively impaired β-arrestin-1/clathrin interaction downstream of β2AR activation; also recorded: selectively disrupted the ISO-induced β-arrestin-1/clathrin complex formation”. Also, the “β-arrestin-1/SRC complex formation, R7A” value in [6] is “specifically eliminated ISO-induced β-arrestin-1/SRC association; also recorded: the ISO-induced β-arrestin-1/SRC complex formation”. Further, the “β2AR/β-arrestin-1 complex formation with β-arrestin-1 mutants” value in [7] was “All of the tested β-arrestin-1 mutants bound to β2AR after ISO stimulation”.

Consider “CCK-8s: CCKAR agonist, 2 μM (DY(sulfate)MGWMDF; ends and bridges not checked; UniProt P06307 96-103, looked up)”, for which the β-arrestin-1/clathrin interaction entry in [8] (15 min) is “only promoted β-arrestin-1/clathrin interaction”. Also, the “β-arrestin-1/clathrin interaction, R25A” value in experiment [8] (β-arrestin-1 R25A vs wild type) is reported as “selectively disrupted β-arrestin-1/clathrin interaction”. Moreover, the β-arrestin-1/SRC recruitment result in experiment [9] is recorded as “only promoted β-arrestin-1/clathrin interaction”.
